# Assay results from paper PMC11607671, “Antiviral activity of cathelicidins against porcine epidemic diarrhea virus (PEDV): Mechanisms, and efficacy” (Virus Research, 2024).
# Experiments:
# Assay type in all cases: cell-based, Porcine epidemic diarrhea virus
# PEDV = test: Co-incubation antiviral assay, PEDV MOI=1, Vero cells; conditions: Fig. 4B
# Method: (§1) In order to determine the effect of AMPs on the infectivity of PEDV, Vero cells (5 × 10^5 per well) were seeded in 12-well plates and cultured overnight at 37 °C, 5% CO2. In a co-incubation of virus and AMPs experiments (Fig. 2A), the mixture of AMPs (0–10 µM) and PEDV-GFP (MOI= 0.3) in a 1 mL volume of DMEM (P/S + 10% FCS) was added to the cells and incubated at 37 °C. After 2 h, the supernatant was replaced with fresh DMEM (P/S + 10% FCS) and incubated for 24 h. Subsequently, the cells were washed 2 times with flow cytometry buffer (500 mL PBS+ 10 mL FCS+ 250 µL of 10% NaN3) and were imaged with an EVOS M5000 Imaging System for semi-quantitative determination of infectivity. Eventually, cells were carefully detached by 2.5% trypsin, stained with ViaKrome 808 fixable viability dye (1:1000), and incubated for 30 min at 4 °C. Following washing, the cells were fixed using 50 µL of 4% PFA for 10 min, and a minimum of 1 × 10^5 cells were acquired using the CytoFLEX LX Flow Cytometer (FC)(Beckman Coulter, USA). Data was analyzed using FlowJo software v.10.6 (Flowjo LCC, Ashland, OR, USA).
# Fig. 4 The inhibitory effect of AMPs on PEDV at MOI=1. A) Fluorescence microscopy image was captured at 20 × magnification to visualize the GFP fluorescence signal in Vero cells following co-incubation of AMPs and PEDV at MOI=1. B) The percentage of GFP-positive cells was determined by FC after 3 h co-incubation of PEDV and AMPs. C) The fluorescence intensity of GFP across three different concentrations of LL-37 was illustrated through the FC histogram. […] The reported values in 4A represent the mean ± SD of three independent experiments performed in duplicate **** p < 0.0001.
# PEDV-GFP [1] = test: Co-incubation antiviral assay, PEDV-GFP MOI=0.3, Vero cells (fluorescence microscopy and flow cytometry)
# Method: as §1
# Fig. 2 Effect of AMPs on the infectivity of PEDV (MOI=0.3). A) Experimental set-up of the ‘co-incubation assay’; Vero cells were subjected to 2 h exposure to a combination of AMPs and PEDV-GFP. Afterward, the supernatant was replaced, and the cells were incubated for an additional 24 h B) Fluorescent microscopy (20 × magnification) was performed to visualize the fluorescence signal of GFP in the presence of 1, 5, and 10 µM AMPs. The cell-only sample consists exclusively of cells while the no-peptide sample contains only PEDV-GFP, with no peptides present.
# Fig. 3 Antiviral activity of AMPs as determined by flow cytometry (FC). A) The percentage of GFP-positive cells following a 2 h incubation with a combination of PEDV and AMPs. […] The values reported here depict the average ± SD derived from three independent experiments performed in duplicate. * p < 0.05; ** p < 0.01.
# PEDV-GFP [2] = test: Co-incubation antiviral assay of the extended AMP panel and of FL LL-37; conditions: co-incubation with PEDV-GFP, 1 and 5 µM, 3 h, FC; two independent experiments in duplicate; Fig. 5
# Method: as §1
# This extended panel of AMPs encompassed chicken-derived peptides (D-CATH-2, l-CATH-2), mouse-derived peptide (CRAMP), horse-derived peptides (eCATH-1, eCATH-3), parrot-derived peptides (ER2, ER3, AG3), and synthetic peptides (CR165, CR174), all of which were readily accessible within our laboratory. As previously described, these AMPs were co-incubated with PEDV.
# Fig. 5 Antiviral effects of a diverse group of AMPs on PEDV infection. Vero cells were incubated for 3 h with a combination of PEDV-GFP and AMPs, as described previously. FC was utilized to assess the inhibitory impact of AMPs.
# Figure S4. The antiviral activity of FL LL-37 (fluorogenic LL-37 ) and unlabeled LL-37. Peptides were co-incubated at 1 and 5 µM with PEDV and added to Vero cells for 3 h, followed by FC analysis to examine the infectivity.
sequence,measurement,setting,value
"LLGDFFRKSKEKIGKEFKRIVQRIKDFLRNLVPRTES [LL-37, human cathelicidin antimicrobial peptide, 37 residues]","% infected cells (FC), co-incubation at MOI=1","PEDV; 10 µM peptide, PEDV MOI=1, Vero cells, no-peptide control almost 100%",30%
same,"antiviral effect at MOI=1, in words","PEDV; PEDV MOI=1, co-incubation, Vero cells, FC",remained strong
same,"percentage of GFP-positive cells (FC), co-incubation","PEDV-GFP [1]; 10 µM peptide, PEDV-GFP MOI=0.3, 2 h co-incubation then 24 h, no-peptide control approximately 35%, three independent experiments in duplicate, Fig. 3A",1–2%
same,"infected cells by fluorescent microscopy, co-incubation","PEDV-GFP [1]; PEDV-GFP MOI=0.3, 5 and 10 µM peptide, 2 h co-incubation then 24 h, compared to control without peptide, Fig. 2B",reduced numbers of infected cells
same,"prevention of PEDV-GFP entry into Vero cells, extended AMP panel, in words",PEDV-GFP [2],strong antiviral activity
